In test [1] the target is benzodiazepine receptor. The experiment in a line: in vitro benzodiazepine receptor binding assay (inhibition of specific binding of 2 nM tritiated diazepam). To be noted: membranes from rat fore-brain, 0°-5°, 30 minutes, pH7.5. How it is done:
The benzodiazepine receptor binding properties indicative of the nervous system regulatory activity of said new compounds are determined in the receptor binding assay in vitro, e.g. as described in Nature 266, 732 (1977) or Proc. Nat. Acad. Sci. USA 74, 3805 (1977). Diazepam binds specifically and with high affinity to crude synaptosomal membrane preparations from rat fore-brain. This binding is inhibited by other anxiolytic compounds. When tritiated diazepem is used, the interaction of other drugs with said receptor can be readily assessed thus: membranes from rat fore-brain are incubated at 0°-5° for 30 minutes with 2 nM tritiated diazepam and various concentrations of the test substance in a buffer medium maintained at pH7.5. Solutions of the various concentrations of test substances are prepared by dilution of a 4.2 mM stock solution in dimethylacetamide-ethanol (1:10) with 50 mM pH7.5 Tris-HCl buffer. The membranes, containing the receptors with various amounts of tritiated diazepam, are filtered onto glass fiber filters, which are then analyzed in a liquid scintillation counter. The concentration of the compounds of this invention, required to inhibit the specific binding of 2 nM of tritiated diazepam by 50%, i.e. the IC50, is determined graphically.

Test [2] has as its system benzodiazepine receptor. Kind of test: in vivo benzodiazepine receptor binding (3H-flunitrazepam). To be noted: dose of about 30 mg/kg i.p. The arrangement: species or system mice or rats. How it is done: In vivo benzodiazepine receptor binding is determined essentially as described in Eur. J. Pharmacol. 48, 213 (1978) and Nature 275, 551 (1978).
Test compounds in a corn starch vehicle are administered orally or intraperitioneally to mice or rats. Thirty minutes later, 3H-flunitrazepam(2 nmoles/Kg in saline) is injected into the tail vein, and the animals are sacrificed 20 minutes after injection of the flunitrazepam. The brains are then assayed by determining radioactivity in a liquid scintillation counter for binding of the radioligand to the receptors. A decrease in the binding of 3H-flimotrazepam in the drug-treated animals (as compared with the binding observed in animals treated with vehicle alone) is indicative of benzodiazepine receptor binding by the test compound.

In the case of `O=c1c2c[nH]c3ccccc3c-2nn1-c1nccs1` [Example 4, 2-(2-thiazolyl)-pyrazolo[4,3-c]quinolin-3(5H)-one], in test [1], the IC50 was roughly 0.3 nM. In test [2], the “inhibition of flunitrazepam binding in vivo” value is listed as “inhibits flunitrazepam binding in vivo”.

`O=c1c2c[nH]c3ccc(F)cc3c-2nn1-c1ncccn1` [Example 2, 8-fluoro-2-(2-pyrimidyl)-pyrazolo[4,3-c]quinolin-3(5H)-one] yielded an IC50 in test [1] of roughly 2 nM.

As to `O=c1c2c[nH]c3ccccc3c-2nn1-c1ncccn1` [Example 1, 2-(2-pyrimidyl)-pyrazolo[4,3-c]quinolin-3(5H)-one], in test [1], the IC50 is roughly 6 nM.

The IC50 is the concentration that gives 50% inhibition. A lower IC50 goes with higher potency.

Values taken from US4524146A, “Certain -2-heterocycle substituted pyrazoloquinolines” (Ciba-Geigy Corporation, priority 1982, dated 1985).
